According to patent US8722674B2, “1,3,5-triazine-2,4,6-triamine compound or pharmaceutical acceptable salt thereof, and pharmaceutical composition comprising the same” (Hanall Biopharma Co., Ltd., priority 2007, dated 2014):

Experiments:
[1] = system: HepG2 cells; experiment: Measurement of gluconeogenesis (14C-lactate); format: cell-based; settings: Homo sapiens, 24 h treatment, lower is better, read-out: gluconeogenesis (glucose synthesis ability), % control
Protocol: (§1) Metformin that is widely used in type 2 diabetic patients inhibits the formation of glucose, the synthesis of cholesterol and triglyceride in liver cells and promote the absorption of glucose from blood vessels in the muscle cells. […] In the case of the ability to form cholesterol, triglyceride and glucose, the lower the numerical value, the better the effect. Numerical values for a control group become reference values.
As a hepatic cell model, HepG2 cells were cultured in 10% serum-containing high glucose media, and then treated with each of the compounds for 24 hours. Then, the cells were treated with 0.5 uCi 14C-lactate and 10 mM L-lactate, and cultured for 4 hours. After cultivation, the media of the cells were removed, and the cells were washed with PBS, treated with 0.1N NaOH and left to stand at room temperature for 1 hour. Then, the cells were neutralized with 1N HCl, and the amount of glucose formed in the cells was measured with a liquid scintillation counter. […] A lower measurement value means a stronger blood glucose lowering activity.

[2] = system: C2C12 cells; experiment: Measurement of glucose absorption (3H-deoxy-glucose); format: cell-based; settings: for activity at 100 µM / activity at 200 µM: Mus musculus, differentiated C2C12 muscle cells, with 1 μM insulin 24 h, higher is better, read-out: glucose absorption, % control; for effect of reducing insulin resistance, times better than the control group: absorption effect divided by average percent of control group (metformin 2 mM), multiplied by 20
Text: as §1
As a muscle cell model, C2C12 cells were induced to differentiate into muscle cells in 2% bovine fetal serum for 6 days. The C2C12 cells which differentiated into muscle cells were treated with each of the compounds in serum-free low glucose media, and then cultured with 1 μM of insulin for 24 hours. After cultivation, the cells were treated with 1 μCi 3H-deoxy-glucose and 10 μM deoxy-glucose at 37° C. for 15 minutes. After treatment, the media were removed, and the cells were washed twice with PBS. The washed cells were treated with 0.1 N NaOH and neutralized with 1N HCl. The amount of glucose absorbed into the cells was measured with a liquid scintillation counter. The effect of the compounds was determined by selecting a compound showing an absorption effect of at least 200%, dividing the absorption effect by the average percent of the control group, and then multiplying the divided value by […]. A higher measurement value means a stronger ability to reduce insulin resistance.

[3] = system: HepG2 cells; experiment: Measurement of cholesterol synthesis ability (Amplex red fluorescence); format: cell-based; settings: Homo sapiens; 100 uM, HepG2 cells, 24 h treatment; lower is better; read-out: cholesterol synthesis ability, % control
Text: as §1
(§2) As a hepatic cell model, HepG2 cells were used to measure cholesterol synthesis inhibitory ability, which is the important function of AMPK. The hepatic cell model HepG2 cells were cultured in 1% serum-containing media for 24 hours, and then treated with each of the compounds for 24 hours. Then, the cells were disrupted with lysis buffer (0.1 M potassium phosphate, pH 7.4, 0.05 M NaCl, 5 mM cholic acid, 0.1% Triton X-100). To the disrupted cells, the same volume of a reaction solution (2 U/ml cholesterol oxidizing agent, 2 U/ml peroxidase, 0.2 U/ml cholesterol esterase, and 300 μM Amplex red as a fluorescent factor) was added and allowed to react at 37° C. for 30 minutes. After completion of the reaction, the cells were measured with a fluorometer at a wavelength of 560/590 nm (ex/em), thus quantifying the amount of […] formed in the cells. A lower measurement value means an increased lipid production inhibitory ability.

[4] = system: HepG2 cells; experiment: Measurement of triglyceride (Amplex red fluorescence); format: cell-based; settings: Homo sapiens, 100 uM, 24 h treatment, lower is better, read-out: triglyceride synthesis ability, % control
Protocol: as §1
as §2, with “model,” for “model, HepG2 cells were used to measure cholesterol synthesis inhibitory ability, which is the important function of AMPK. The hepatic cell model”, “(0.1M” for “(0.1 M”, “(0.76” for “(2”, “glycerol kinase, […] peroxidase, 22.2 U/ml glycerol” for “cholesterol”, “agent,” for “agent, 2 U/ml peroxidase, 0.2 U/ml cholesterol esterase,”

Row | Structure (SMILES) | melting point [°C] | activity at 100 µM [1] [%] | activity at 100 µM [2] [%] | activity at 100 µM [3] [%] | activity at 100 µM [4] [%] | activity at 200 µM [1] [%] | activity at 200 µM [2] [%] | effect of reducing insulin resistance, times better than the control group [2]
1 | CN(C)c1nc(N)nc(Nc2ccc(Cl)cc2)n1 [Example 20, N2-(4-chlorophenyl)-N4,N4-dimethyl-1,3,5-triazine-2,4,6-triamine] | 164 to 167 | 84.9 | 132 | 56.3 | 41.4 |  |  | 
2 | CCCc1ccc(Nc2nc(N)nc(N(C)C)n2)cc1 [Example 27, N2,N2-dimethyl-N4-(4-propylphenyl)-1,3,5-triazine-2,4,6-triamine] | 155 to 165 | 30.9 | 4.05 | 63.5 | 67.4 |  |  | 
3 | COc1cc(Nc2nc(N)nc(N(C)C)n2)cc(OC)c1 [Example 16, N2-(3,5-dimethoxyphenyl)-N4,N4-dimethyl-1,3,5-triazine-2,4,6-triamine] | 148 to 150 | 87.6 | 63.2 | 66.9 | 79.5 |  |  | 
4 | CN(C)c1nc(N)nc(Nc2ccccc2-c2ccccc2)n1 [Example 38, N2-(biphenyl-2-yl)-N4,N4-dimethyl-1,3,5-triazine-2,4,6-triamine] | 196 to 216 | 13.8 | 92.1 | 55.1 | 63.3 |  |  | 
5 | CN(C)c1nc(N)nc(Nc2cc(Cl)cc(Cl)c2)n1 [Example 24, N2-(3,5-dichlorophenyl)-N4,N4-dimethyl-1,3,5-triazine-2,4,6-triamine] | 240 to 264 | 49.9 | 136 | 55.8 | 41.7 |  |  | 
6 | CC(Nc1nc(N)nc(N(C)C)n1)c1cccc2ccccc12 (stereo not drawn) [Example 21, N2,N2-dimethyl-N4-(1-(naphthalen-1-yl)ethyl)-1,3,5-triazine-2,4,6-triamine] | 73 to 76 | 42.1 | 140 | 56.6 | 71 |  |  | 
7 | COc1ccc(OC)c(Nc2nc(N)nc(N(C)C)n2)c1 [Example 19, N2-(2,5-dimethoxyphenyl)-N4,N4-dimethyl-1,3,5-triazine-2,4,6-triamine] | 213 to 215 | 116 | 131 | 69.2 | 74.5 |  |  | 
8 | CN(C)c1nc(N)nc(N2CCN(c3ccc([N+](=O)[O-])cc3)CC2)n1 [Example 40, N2,N2-dimethyl-6-(4-(4-nitrophenyl)piperazin-1-yl)-1,3,5-triazine-2,4-diamine] | 173 to 182 | 39.8 | 245 | 62.2 | 110 |  |  | about 14 times
9 | CN(C)c1nc(N)nc(Nc2ccccc2O)n1 [Example 43, 2-(4-amino-6-(dimethylamino)-1,3,5-triazine-2-ylamino)phenol] | 307 to 312 | 83.5 | 186 | 41.1 | 77 |  |  | 
10 | CN(C)c1nc(N)nc(N2CCN(c3ccccc3)CC2)n1 [Example 39, N2,N2-dimethyl-6-(4-phenylpiperazin-1-yl)-1,3,5-triazine-2,4-diamine] | 132 to 139 | 77.4 | 115 | 55.8 | 95.3 |  |  | 
11 | CN(C)c1nc(N)nc(Nc2ccc(F)cc2)n1 [Example 31, N2-(4-fluorophenyl)-N4,N4-dimethyl-1,3,5-triazine-2,4,6-triamine] | 182 to 199 | 80.7 | 131 | 67.2 | 69.8 |  |  | 
12 | CN(C)c1nc(N)nc(Nc2ccc(-c3ccccc3)cc2)n1 [Example 37, N2-(biphenyl-4-yl)-N4,N4-dimethyl-1,3,5-triazine-2,4,6-triamine] | 190 to 201 | 85.7 | 151 | 66.8 | 80.6 |  |  | 
13 | CCCc1ccccc1Nc1nc(N)nc(N(C)C)n1 [Example 26, N2,N2-dimethyl-N4-(2-propylphenyl)-1,3,5-triazine-2,4,6-triamine] | 130 to 145 | 24.7 | 170 | 62.9 | 38.6 |  |  | 

Second part, led by results:

Row | melting point [°C] | Structure (SMILES) | activity at 100 µM [1] [%] | activity at 100 µM [2] [%] | activity at 100 µM [3] [%] | activity at 100 µM [4] [%] | activity at 200 µM [1] [%] | activity at 200 µM [2] [%] | effect of reducing insulin resistance, times better than the control group [2]
14 | 151.6 to 152 | CN(C)c1nc(N)nc(NCc2ccoc2)n1 [Example 12, N2-(furan-3-ylmethyl)-N4,N4-dimethyl-1,3,5-triazine-2,4,6-triamine] |  |  | 92.4 | 87.7 | 78.6 | 180 | 
15 | 176.5 to 177 | CN(C)c1nc(N)nc(NCCCN2CCCC2=O)n1 [Example 9, 1-(3-(4-amino-6-(dimethylamino)-1,3,5-triazin-2-ylamino)propyl)pyrrolidin-2-one] |  |  | 93.5 | 95.2 | 110 | 120 | 
16 | 227 to 228 | CN(C)c1nc(N)nc(N(C)C)n1 [Example 10, N2,N2,N4,N4-tetramethyl-1,3,5-triazine-2,4,6-triamine] |  |  | 98.9 | 97 | 87.2 | 102 | 
17 | 240 to 249 | CN(C)c1nc(N)nc(N2CCCCCC2)n1 [Example 34, 6-(azepan-1-yl)-N2,N2-dimethyl-1,3,5-triazine-2,4-diamine] | 39.4 | 203 | 52.6 | 70.9 |  |  | about 12 times
18 | 245 to 255 | CN(C)c1nc(N)nc(Nc2ccc3c(c2)CCC3)n1 [Example 23, N2-(2,3-dihydro-1H-inden-5-yl)-N4,N4-dimethyl-1,3,5-triazine-2,4,6-triamine] | 10.7 | 1.91 | 63 | 37.2 |  |  | 
19 | 119 to 120 | CN(C)c1nc(N)nc(NC2CCCCC2)n1 [Example 41, N2-cyclohexyl-N4,N4-dimethyl-1,3,5-triazine-2,4,6-triamine] | 90.6 | 263 | 70.8 | 90.9 |  |  | about 16 times
20 | 105 to 108 | CN(C)c1nc(N)nc(Nc2ccc(Br)cc2)n1 [Example 18, N2-(4-bromophenyl)-N4,N4-dimethyl-1,3,5-triazine-2,4,6-triamine] | 67 | 91.5 | 66.4 | 44.6 |  |  | 
21 | 166 to 168 | Cc1cccc(Nc2nc(N)nc(N(C)C)n2)c1 [Example 32, N2,N2-dimethyl-N4-m-tolyl-1,3,5-triazine-2,4,6-triamine] | 66.8 | 118 | 34.2 | 66.6 |  |  | 
